The text below walks through data of patent publication US4309425A (priority 1980, dated 1982).

The subject of assay [1] is Pythium. The assay can be described thus: Pythium infested soil test, cotton. It is filed as in vivo. To be noted: 1.5 kg/ha, 8 days. The source says:
Pythium infested soil was placed in a 900 cc cup. Compounds of this invention were mixed at a rate of 1.5 kg/ha in a section 2" wide×2" deep×4" long to simulate an in-the-row application. Five cotton seeds were planted in the treated soil. After 8 days, the cotton plants were removed and rated for disease control.

The subject of assay [2] is organo-phosphorous resistant two-spotted spider mites. The assay can be described thus: organo-phosphorous resistant two-spotted spider mites on bean plants, spray, mortality after two days. To be noted: Tetranychus urticae, 48 h, read-out: % Mortality (2 days).
The test system of assay [3] is two-spotted mites. The assay is described as follows: two-spotted mites on bean plants, spray, mortality after two days. It counts as in vivo. To be noted: Tetranychus urticae, 48 h, read-out: % Mortality (2 days); for mortality at 0.00025 %: spray concentration .00025%; for mortality at 0.0005 %: spray concentration .0005%; for mortality at 0.001 %: spray concentration .001%. The protocol: Mortality was evaluated two days after spraying.
Mortality after two days is set forth below.

Assay [4] concerns Phytophthora infestans. The assay can be described thus: whole plant or invertebrate. It is filed as in vivo. To be noted: in Solanum lycopersicum, 96 h, read-out: % control tomato late blight in a residual wash-off test.
Assay [5] has as its system bean aphids (Aphis fabae). The assay can be described thus: bean aphids on nasturtium leaves, spray. It counts as in vivo. To be noted: 24 hours, read-out: 24 Hours Evaluation (% Kill). As to the method: Stems of nasturtium leaves infested with bean aphids (Aphis fabae) were placed in individual vials of water. The leaves were sprayed to run-off with a series of suspensions of N-[N-[2-chloro-5-(trifluoromethyl)phenyl]-N-[2,4-dinitro-6-(trifluoromethyl)-phenyl]aminothio]-N,4-dimethylbenzenesulfonamide. Suspensions were prepared by dissolving 50 mg of the compound in 10 ml of acetone, adding 1 ml of 1% methocel 15, and diluting to volume with Duponol®:water at 1:3000. Evaluations with respect to % kill 24 hours later are set forth below.

Assay [6] has as its system mosquito larvae. The assay can be described thus: mosquito larvae test (failure to become adults). It is filed as in vivo. To be noted: 27°-30°, continuous light. The protocol:
Twenty-five newly hatched mosquito larvae were placed in 25 ml of distilled water in 4 oz glass jars, and 10 mg diet, consisting of 2 parts liver powder and 1 part brewer's yeast, was added.

The subject of assay [7] is Rhizopus. The assay can be described thus: Rhizopus-corn meal mixture overspray test. To be noted: 168 h, 100 ppm, 20° C., 7 days, read-out: % control Rhizopus. As to the method:
Compounds of this invention were dissolved in acetone in an amount equal to 6% of final volume and then suspended at a concentration of 100 ppm in purified water containing 500 ppm of the surfactant Alkanol® XC (sodium alkyl naphthalene sulfonate). This solution was oversprayed on a Rhizopus-corn meal mixture in 6 cm aluminum cups. The sprayed plates were placed in a closed plastic bag, stored at 20° C. for 7 days, and then rated.
The untreated cups were completely covered with Rhizopus mycelial growth, but the treated cups were mostly free of growth by this disease-causing organism.

Assay [8] has as its system Venturia inaequalis. The assay can be described thus: apple scab preventive test. It is filed as in vivo. To be noted: 10-12 days. The protocol:
Compounds of this invention are dissolved in acetone in an amount equal to 6% of the final volume and then suspended at a concentration of 20 ppm in purified water containing 25 ppm of the surfactant Alkanol® XC (sodium alkyl naphthalene sulfonate). This suspension is sprayed to the point of run-off on apple seedlings. The following day, the plants are inoculated with a spore suspension of the fungus Venturia inaequalis and incubated in a growth room for 10-12 days. Disease ratings are then made. […] Phytotoxicity in the form of foliar burn was observed on some of the plants in association with disease control.

In assay [9] the test system is adult houseflies. The assay can be described thus: adult houseflies spray test. It is filed as in vivo, housefly. To be noted: Musca domestica; 1% acetone solutions, 24 hours. From the text: Twenty adult houseflies were confined in each of several cylindrical stainless steel cages (7.5 cm D×4 cm high) with wire screens of the ends. These were sprayed with 1% acetone solutions of the indicated compounds.

For assay [10], the system named is adult cotton boll weevils (Anthonomus grandis). The assay can be described thus: adult cotton boll weevils spray test. It counts as in vivo. To be noted: 1% acetone solution, 24 hours. The protocol: Five adult cotton boll weevils (Anthonomus grandis) were confined in a 4-oz. wide mouth jar. These were sprayed with a 1% acetone solution of the indicated compounds. Percent mortality after 24 hours is set forth below.

For assay [11], the system named is brown dog ticks (Rhipicephalus sanguineus). The assay is described as follows: brown dog ticks spray test. To be noted: 48 h, 12.5 ppm in acetone, forty eight hours. It counts as in vivo. The protocol: Four-ounce wide mouth jars, each containing 10 brown dog ticks (Rhipicephalus sanguineus), were sprayed with 12.5 ppm concentration of the indicated compounds in acetone solution. The ticks were confined with caps which were also sprayed. Forty eight hours later, percent mortality was determined.

The test system of assay [12] is red-legged grasshoppers (Melanoplus femurrubrum). The assay can be described thus: red-legged grasshoppers spray test. It is filed as in vivo. To be noted: 10 ppm in acetone, 48 hours. As to the method: Five red-legged grasshoppers (Melanoplus femurrubrum) were confined in each of several cylindrical stainless steel cages (7.5 cm D×4 cm high) with wire screens at the end. These were sprayed with 10 ppm concentration of the indicated compounds in acetone solution. Percent mortality after 48 hours is recorded below.

Assay [13] has as its system Phytophthora infestans. It is filed as in vivo. To be noted: 20 ppm, 4 days.

Take `Cc1ccc(S(=O)(=O)N(C)SN(c2cc(C(F)(F)F)ccc2Cl)c2c([N+](=O)[O-])cc([N+](=O)[O-])cc2C(F)(F)F)cc1`: the “% control Pythium” value in [1] stood at 0%. For the same compound, in assay [2], the mortality at 0.0005 % came out at 93%, the mortality at 0.001 % is 97% and the mortality at 0.002 % worked out at 100%. Besides, in [3], the mortality at 0.00025 % came to 100%, the mortality at 0.0005 % was 100% and the mortality at 0.001 % was determined as 100%. Further, the pest or weed control at 20 ppm in assay [4] was determined as 100%. Besides, the mortality at 0.005 % in assay [5] (spray concentration 0.005%) was 100%. Further, the mortality at 0.1 % in [5] (spray concentration 0.1%) came to 100%. The “EC50 (concentration at which 50% of the initial larvae fail to become adults)” value in assay [6] amounted to 0.00081 ppm.
As for `CCCCN(SN(c1cc(C(F)(F)F)ccc1Cl)c1c([N+](=O)[O-])cc([N+](=O)[O-])cc1C(F)(F)F)S(=O)(=O)c1ccccc1C`, in assay [7], the inhibition of growth at 100 ppm came out at 90%. In assay [2], the mortality at 0.0005 % was 90%, the mortality at 0.001 % is 89% and the mortality at 0.002 % was 100%. The compound further had a pest or weed control at 20 ppm in assay [8] of 100%. This compound gave a mortality at 1 % in [9] of 100%. In addition, in assay [3], the mortality at 0.00025 % amounted to 100%, the mortality at 0.0005 % came to 100% and the mortality at 0.001 % amounted to 100%. Further, in assay [10], the mortality at 1 % came to 100%.
For `CCCCN(SN(c1cc(C(F)(F)F)ccc1Cl)c1c([N+](=O)[O-])cc([N+](=O)[O-])cc1C(F)(F)F)S(=O)(=O)c1ccc(C)cc1`, the “% control Pythium” value in [1] is given as 0%. Besides, the pest or weed control at 20 ppm in [8] stood at 75%; in [4] it was 100%. The mortality at 1 % in [9] and in assay [10] was 100% throughout. Further, the mortality at 12.5 ppm in [11] is 100%. In [12], the mortality at 10 ppm worked out at 100%. Moreover, in assay [13], the “% control tomato late blight in a preventive test” value amounted to 100%.
